Results reported in patent US20250195536A1, “BICYCLOOCTANE KRAS INHIBITORS” (Incyte Corporation, priority 2023, published 2025).

Key:
KRAS G12V = KRAS G12V (Homo sapiens, UniProt P01116, G12V); experiment: GDP-GTP exchange assay (KRAS G12V); type: biochemical; conditions: bodipy-GDP/GppNHp exchange with SOS1; 3 h incubation after GppNHp-SOS1;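 also: one dagger IC50 up to 100 nM and two daggers above 100 nM up to 1 μM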
Experimental: (§1) The inhibitor potency of the exemplified compounds was determined in a fluorescence based guanine nucleotide exchange assay, which measures the exchange of bodipy-GDP (fluorescently labeled GDP) for GppNHp (Non-hydrolyzable GTP analog) to generate the active state of KRAS in the presence of SOS1 (guanine nucleotide exchange factor). Inhibitors were serially diluted in DMSO and a volume of 0.1 μL was transferred to the wells of a black low volume 384-well plate. 5 μL/well volume of bodipy-loaded KRAS G12D diluted to 2.5 nM in assay buffer (25 mM Hepes pH 7.5, 50 mM NaCl, 10 mM MgCl2 and 0.01% Brij-35) was added to the plate and pre-incubated with inhibitor for 4 h at r.t. Appropriate controls (enzyme with no inhibitor or with a G12D inhibitor) were included on the plate. The exchange was initiated by the addition of a 5 μL/well volume containing 1 mM GppNHp and 300 nM SOS1 in assay buffer. The 10 μL/well reaction concentration of the bodipy-loaded KRAS G12D, GppNHp, and SOS1 were 2.5 nM, 500 μM, and 150 nM, respectively. The reaction plates were incubated at r.t. for 2 h, a time estimated for complete GDP-GTP exchange in the absence of inhibitor. For the KRAS G12V mutant, similar guanine nucleotide exchange assays were used with 2.5 nM as final concentration for the bodipy loaded KRAS proteins and 3 h incubation after adding GppNHp-SOS1 mixture. A cyclic peptide described to selectively bind G12D mutant (Sakamoto et al., BBRC 484.3 (2017), 605-611) or internal compounds with confirmed binding were used as positive controls in the assay plates. Fluorescence intensities were measured on a PheraStar plate reader instrument (BMG Labtech) with excitation at 485 nm and emission at 520 nm.
(§2) Either GraphPad prism or Genedata Screener SmartFit was used to analyze the data. The IC50 values were derived by fitting the data to a four parameter logistic equation producing a sigmoidal dose-response curve with a variable Hill coefficient.
(§3) The symbol “⬆” indicates IC50 100 nM, “⬆⬆” indicates IC50 >100 nM but ≤1 μM; and “⬆⬆⬆” indicates IC50 is >1 μM but ≤5 μM, “⬆⬆⬆⬆” indicates IC50 is >5 μM but ≤10 μM. “NA” indicates IC50 not available.

[1] = Caco2 assay (permeability, Papp A-B); type: in vitro ADME; conditions: human, Caco-2, absorptive direction (A-B), 50 μM test compound, 4% BSA in receiver
Experimental: Caco-2 cells are grown at 37° C. in an atmosphere of 5% CO2 in DMEM growth medium supplemented with 10% (v/v) fetal bovine serum, 1% (v/v) nonessential amino acids, penicillin (100 U/mL), and streptomycin (100 μg/mL). Confluent cell monolayers are subcultured every 7 days or 4 days for Caco-2 by treatment with 0.05% trypsin containing […]. Caco-2 cells are seeded in 96-well Transwell plates. The seeding density for Caco-2 cells is 14,000 cells/well. DMEM growth medium is replaced every other day after seeding. Cell monolayers are used for transport assays between 22 and 25 days for Caco-2 cells.
Cell culture medium is removed and replaced with HBSS. To measure the TEER, the HBSS is added into the donor compartment (apical side) and receiver compartment (basolateral side). The TEER is measured by using a REMS Autosampler to ensure the integrity of the cell monolayers. Caco-2 cell monolayers with TEER values 300 Ω·cm^2 are used for transport experiments. To determine the Papp in the absorptive direction (A-B), solution of test compound (50 μM) in HBSS is added to the donor compartment (apical side), while HBSS solution with 4% BSA is added to the receiver compartment (basolateral side). The apical volume was 0.075 mL, and the basolateral volume is 0.25 mL. The incubation period is 120 min. at 37° C. in an atmosphere of 5% CO2. At the end of the incubation period, samples from the donor and receiver sides are removed and an equal volume of MeCN is added for protein precipitation. The supernatants are collected after centrifugation (3000 rpm, Allegra X-14R Centrifuge from Beckman Coulter, Indianapolis, IN) for LCMS analysis. The permeability value is determined according to the equation:
Papp(cm/s)=(F*VD)/(SA*MD),
where the flux rate (F, mass/time) is calc. from the slope of cumulative amounts of compound of interest on the receiver side, SA is the surface area of the cell membrane, VD is the donor volume, and MD is the initial amount of the solution in the donor chamber.
The symbol “+” indicates a Caco-2 value of ≤0.5, “++” indicates a Caco-2 value of >0.5 but ≤1; and “+++” indicates a Caco-2 value of >1. “NA” indicates Caco-2 value not available.

KRAS G12D = KRAS G12D (Homo sapiens, UniProt P01116, G12D); experiment: GDP-GTP exchange assay (KRAS G12D); type: biochemical; conditions: bodipy-GDP/GppNHp exchange with SOS1; 4 h pre-incubation, 2 h reaction;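 also: one dagger IC50 up to 100 nM and two daggers above 100 nM up to 1 μM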
KRAS G12D, sequence (P01116 1-188 isoform P01116-2 G12D): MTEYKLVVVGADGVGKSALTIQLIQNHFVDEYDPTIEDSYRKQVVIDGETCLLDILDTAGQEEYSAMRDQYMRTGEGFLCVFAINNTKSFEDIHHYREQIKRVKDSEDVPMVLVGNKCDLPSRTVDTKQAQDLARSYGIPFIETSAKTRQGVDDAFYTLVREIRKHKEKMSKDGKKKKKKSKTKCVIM
Experimental: as §1, §2, §3

KRAS G12V, sequence (P01116 1-188 isoform P01116-2 G12V): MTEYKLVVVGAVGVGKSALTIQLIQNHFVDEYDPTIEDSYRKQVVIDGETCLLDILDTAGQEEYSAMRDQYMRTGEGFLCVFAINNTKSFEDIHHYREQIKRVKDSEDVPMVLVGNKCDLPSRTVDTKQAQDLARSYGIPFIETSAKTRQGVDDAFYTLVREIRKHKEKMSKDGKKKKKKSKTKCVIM

G12V_exchange (KRAS_G12V exchange assay IC50) (KRAS G12V) | Papp A→B at 120 min, 50 μM [1] [×10⁻⁶ cm/s] | G12D_exchange (KRAS_G12D exchange assay IC50) (KRAS G12D) | SMILES
† | ≤ 0.5 | †† | Cc1nc2c(F)c(-c3cccc(Cl)c3Cl)c(CCC#N)cc2c2c1cc([C@H]1[C@H]3C[C@H](CN(c4ccccc4)C3)N1C(=O)C1CC1)n2[C@H]1[C@H]2CN[C@@H]1C2 (atropisomer, axis not shown; (Ra)) [Example 1, 3-((Ra)-1-((1R,4R,5S)-2-Azabicyclo[2.1.1]hexan-5-yl)-2-((1 S,5R,7R)-6-(cyclopropanecarbonyl)-3-phenyl-3,6-diazabicyclo[3.2.1]octan-7-yl)-7-(2,3-dichlorophenyl)-6-fluoro-4-methyl-1H-pyrrolo[3,2-c]quinolin-8-yl)propanenitrile]
† | ≤ 0.5 | † | Cc1nc2c(F)c(-c3cccc(Cl)c3Cl)c(CCC#N)cc2c2c1cc([C@H]1[C@H]3C[C@H](CN(c4ccccc4F)C3)N1C(=O)C1CC1)n2[C@H]1[C@H]2CN[C@@H]1C2 (atropisomer, axis not shown; (Ra)) [Example 2, 3-((Ra)-1-((1R,4R,5S)-2-Azabicyclo[2.1.1]hexan-5-yl)-2-((1 S,5R,7R)-6-(cyclopropanecarbonyl)-3-(2-fluorophenyl)-3,6-diazabicyclo[3.2.1]octan-7-yl)-7-(2,3-dichlorophenyl)-6-fluoro-4-methyl-1H-pyrrolo[3,2-c]quinolin-8-yl)propanenitrile]
† | ≤ 0.5 | †† | Cc1nc2c(F)c(-c3cccc(Cl)c3Cl)c(CCC#N)cc2c2c1cc([C@H]1[C@H]3C[C@H](CN(c4ccc(OC(F)(F)F)cc4)C3)N1C(=O)C1CC1)n2[C@H]1[C@H]2CN[C@@H]1C2 (atropisomer, axis not shown; (Ra)) [Example 3, 3-((Ra)-1-((1R,4R,5S)-2-azabicyclo[2.1.1]hexan-5-yl)-2-((1S,5R,7R)-6-(cyclopropanecarbonyl)-3-(4-(trifluoromethoxy)phenyl)-3,6-diazabicyclo[3.2.1]octan-7-yl)-7-(2,3-dichlorophenyl)-6-fluoro-4-methyl-1H-pyrrolo[3,2-c]quinolin-8-yl)propanenitrile]
† | ≤ 0.5 | † | Cc1nc2c(F)c(-c3cccc(Cl)c3Cl)c(CCC#N)cc2c2c1cc([C@H]1[C@H]3C[C@H](CN(c4ccc(C#N)cc4)C3)N1C(=O)C1CC1)n2[C@H]1[C@H]2CN[C@@H]1C2 (atropisomer, axis not shown; (Ra)) [Example 4, 4-((1S,5R,7R)-7-((Ra)-1-((1R,4R,5S)-2-azabicyclo[2.1.1]hexan-5-yl)-8-(2-cyanoethyl)-7-(2,3-dichlorophenyl)-6-fluoro-4-methyl-1H-pyrrolo[3,2-c]quinolin-2-yl)-6-(cyclopropanecarbonyl)-3,6-diazabicyclo[3.2.1]octan-3-yl)benzonitrile]
† | ≤ 0.5 | † | Cc1nc2c(F)c(-c3cccc(Cl)c3Cl)c(CCC#N)cc2c2c1cc([C@H]1[C@H]3C[C@H](CN(c4ccc(C(F)(F)F)nc4)C3)N1C(=O)C1CC1)n2[C@H]1[C@H]2CN[C@@H]1C2 (atropisomer, axis not shown; (Ra)) [Example 5, 3-((Ra)-1-((1R,4R,5S)-2-azabicyclo[2.1.1]hexan-5-yl)-2-((1S,5R,7R)-6-(cyclopropanecarbonyl)-3-(6-(trifluoromethyl)pyridin-3-yl)-3,6-diazabicyclo[3.2.1]octan-7-yl)-7-(2,3-dichlorophenyl)-6-fluoro-4-methyl-1H-pyrrolo[3,2-c]quinolin-8-yl)propanenitrile]
† | > 1 | – | COC(=O)N1[C@@H]2C[C@@H](CN(c3nccnc3OC)C2)[C@@H]1c1cc2c(C)nc3c(F)c(-c4cccc(Cl)c4Cl)c(CCC#N)cc3c2n1[C@H]1[C@H]2CN[C@@H]1C2 (atropisomer, axis not shown; (Ra)) [Example 125, Methyl (1 S,5R,7R)-7-((Ra)-1-((1R,4R,5S)-2-azabicyclo[2.1.1]hexan-5-yl)-8-(2-cyanoethyl)-7-(2,3-dichlorophenyl)-6-fluoro-4-methyl-1H-pyrrolo[3,2-c]quinolin-2-yl)-3-(3-methoxypyrazin-2-yl)-3,6-diazabicyclo[3.2.1]octane-6-carboxylate]
† | ≤ 0.5 | – | COC(=O)N1[C@@H]2C[C@@H](CN(c3ncc(OCC4CC4)cn3)C2)[C@@H]1c1cc2c(C)nc3c(F)c(-c4cccc(Cl)c4Cl)c(CCC#N)cc3c2n1[C@H]1[C@H]2CN[C@@H]1C2 (atropisomer, axis not shown; (Ra)) [Example 126, Methyl (1 S,5R,7R)-7-((Ra)-1-((1R,4R,5S)-2-azabicyclo[2.1.1]hexan-5-yl)-8-(2-cyanoethyl)-7-(2,3-dichlorophenyl)-6-fluoro-4-methyl-1H-pyrrolo[3,2-c]quinolin-2-yl)-3-(5-(cyclopropylmethoxy)pyrimidin-2-yl)-3,6-diazabicyclo[3.2.1]octane-6-carboxylate]
† | ≤ 0.5 | – | COC(=O)N1[C@@H]2C[C@@H](CN(c3cnc(C#N)cn3)C2)[C@@H]1c1cc2c(C)nc3c(F)c(-c4cccc(Cl)c4Cl)c(CCC#N)cc3c2n1[C@H]1[C@H]2CN[C@@H]1C2 (atropisomer, axis not shown; (Ra)) [Example 127, Methyl (1 S,5R,7R)-7-((Ra)-1-((1R,4R,5S)-2-azabicyclo[2.1.1]hexan-5-yl)-8-(2-cyanoethyl)-7-(2,3-dichlorophenyl)-6-fluoro-4-methyl-1H-pyrrolo[3,2-c]quinolin-2-yl)-3-(5-cyanopyrazin-2-yl)-3,6-diazabicyclo[3.2.1]octane-6-carboxylate]
† | ≤ 0.5 | – | Cc1nc2c(F)c(-c3cccc(Cl)c3Cl)c(CCC#N)cc2c2c1cc([C@H]1[C@H]3C[C@H](CN(c4cc(C(C)(F)F)ncn4)C3)N1C(=O)C1(F)CC1)n2[C@H]1[C@H]2CN[C@@H]1C2 (atropisomer, axis not shown; (Ra)) [Example 128, 3-((Ra)-1-((1R,4R,5S)-2-azabicyclo[2.1.1]hexan-5-yl)-7-(2,3-dichlorophenyl)-2-((1S,5R,7R)-3-(6-(1,1-difluoroethyl)pyrimidin-4-yl)-6-(1-fluorocyclopropane-1-carbonyl)-3,6-diazabicyclo[3.2.1]octan-7-yl)-6-fluoro-4-methyl-1H-pyrrolo[3,2-c]quinolin-8-yl)propanenitrile]
